Measurements reported in patent US5527801A, “Ameliorant for blood lipid metabolism” (Dainippon Pharmaceutical Co., Ltd., priority 1991, dated 1996).
Where two headings read alike, the source gives them in different places.

Tests used:
[1] = system: lipid deposition at aortic inner wall; test: Area of lipid deposition at aortic inner wall of rabbits fed high fat feed (atherosclerosis); type: in vivo, male white Japanese rabbits; conditions: 9 weeks; for Area of lipid deposition at aortic inner wall: high fat feed, percentage of whole area of aortic inner wall, oral once a day: maleate of Compound A 30, diltiazem 50, prazosin 3 mg/kg/day; for Area of lipid deposition at the aortic inner wall, effect in words: vs High fat feed + Vehicle
Description: (§1) In this experiment, male white Japanese rabbits (5 to 7 rabbits/group) were used. The high fat feed was prepared by adding 1% cholesterol and 6% coconut oil to the solid feed (Oriental Yeast Co., Ltd., RC-4).
(§2) Separately, in the normal feed group, each rabbit was given normal solid feed (RC-4) (100 g/day) and a vehicle (tragacanth solution) orally.
(§3) Nine weeks after the beginning of administration, each rabbit was killed with bleeding under pentobarbital-anesthesia, and the aorta was taken out. The cholesterol amount in the aorta was determined, and the lipid deposition at the aortic inner wall was stained and the area of the stained parts was measured.

[2] = JP Kokoku 58341/1991 (U.S. Pat. No. 4,749,703); cited from earlier work
[3] = system: total cholesterol in plasma; test: Total cholesterol in plasma of rabbits fed high fat feed; type: in vivo, male white Japanese rabbits; conditions: for Total cholesterol concentration in plasma: ± standard error; for Total cholesterol concentration, effect in words: vs High fat feed + Vehicle, up to 9 weeks
Description: as §1, §2

[4] = system: phospholipid in plasma; test: Phospholipid in plasma of rabbits fed high fat feed; type: in vivo, male white Japanese rabbits; conditions: for Phospholipid concentration in plasma: ± standard error; for Phospholipid concentration, effect in words: vs High fat feed + Vehicle, up to 9 weeks
Description: as §1, §2

[5] = system: α1-receptor; conditions: Jpn. J. Pharmacol., 52 (suppl. 1), 212 (1990); cited from earlier work
[6] = system: cholesterol amount in aortas; test: Cholesterol amount in the aorta of rabbits fed high fat feed (atherosclerosis); type: in vivo, male white Japanese rabbits; conditions: 9 weeks; for Cholesterol amount in aortas: high fat feed, oral once a day: maleate of Compound A 30, diltiazem 50, prazosin 3 mg/kg/day; for Cholesterol amount in the aorta, effect in words: vs High fat feed + Vehicle
Description: as §1, §2, §3

[7] = system: free cholesterol in plasma; test: Free cholesterol in plasma of rabbits fed high fat feed; type: in vivo, male white Japanese rabbits; conditions: for Free cholesterol concentration in plasma: ± standard error; for Free cholesterol concentration, effect in words: vs High fat feed + Vehicle, up to 9 weeks
Description: as §1, §2

[8] = Hypotensive activity at the dosages of the experiment; type: in vivo; conditions: at 30 (maleate of Compound A), 50 (diltiazem), 3 (prazosin) mg/kg/day, oral
[9] = system: atherosclerosis; conditions: cited from earlier work
[10] = system: rats; conditions: rat, in vivo
[11] = Acute toxicity (LD50), oral, mice; conditions: mouse, in vivo
[12] = system: beagles; conditions: dog, in vivo
[13] = system: blood lipid; conditions: cited from earlier work
[14] = week 0, high fat feed, before treatment
[15] = week 6, high fat feed, oral once a day: maleate of Compound A 30, diltiazem 50, prazosin 3 mg/kg/day
[16] = week 8, high fat feed, oral once a day: maleate of Compound A 30, diltiazem 50, prazosin 3 mg/kg/day
[17] = week 9, high fat feed, oral once a day: maleate of Compound A 30, diltiazem 50, prazosin 3 mg/kg/day

## O=C(CCCN1CCN(c2ccc(F)cc2)CC1)NC1c2ccccc2CSc2ccccc21 (stereo not shown) [Compound A]
[1]
  Area of lipid deposition at aortic inner wall: 35.2%
[2]
  calcium antagonistic activity: potent calcium antagonistic activity
[3]; [14]
  Total cholesterol concentration in plasma: 1161 ± 110 mg/dL
[3]; [15]
  Total cholesterol concentration in plasma: 1595 ± 136 mg/dL
[3]; [16]
  Total cholesterol concentration in plasma: 1074 ± 162 mg/dL
[3]; [17]
  Total cholesterol concentration in plasma: 1070 mg/dL
[4]; [14]
  Phospholipid concentration in plasma: 452 ± 42 mg/dL
[4]; [15]
  Phospholipid concentration in plasma: 678 ± 70 mg/dL
[4]; [16]
  Phospholipid concentration in plasma: 529 ± 66 mg/dL
[4]; [17]
  Phospholipid concentration in plasma: 489 mg/dL
[5]
  α1-receptor blocking activity: have α1 -receptor blocking activity
[6]
  Cholesterol amount in aortas: 234.4 ± 39.4 mg/kg of protein
[7]; [14]
  Free cholesterol concentration in plasma: 346 ± 34 mg/dL
[7]; [15]
  Free cholesterol concentration in plasma: 503 ± 43 mg/dL
[7]; [16]
  Free cholesterol concentration in plasma: 330 ± 56 mg/dL
[7]; [17]
  Free cholesterol concentration in plasma: 306 mg/dL

## COc1ccc([C@@H]2Sc3ccccc3N(CCN(C)C)C(=O)[C@@H]2OC(C)=O)cc1 [diltiazem]
[1]
  Area of lipid deposition at aortic inner wall: 45.2%
  Area of lipid deposition at the aortic inner wall, effect in words: not decreased at all
[3]
  Total cholesterol concentration, effect in words: no decrease
[3]; [14]
  Total cholesterol concentration in plasma: 1127 ± 202 mg/dL
[3]; [15]
  Total cholesterol concentration in plasma: 2297 ± 127 mg/dL
[3]; [16]
  Total cholesterol concentration in plasma: 2106 ± 293 mg/dL
[3]; [17]
  Total cholesterol concentration in plasma: 1626 mg/dL
[4]
  Phospholipid concentration, effect in words: no decrease
[4]; [14]
  Phospholipid concentration in plasma: 454 ± 72 mg/dL
[4]; [15]
  Phospholipid concentration in plasma: 931 ± 50 mg/dL
[4]; [16]
  Phospholipid concentration in plasma: 825 ± 116 mg/dL
[4]; [17]
  Phospholipid concentration in plasma: 718 mg/dL
[8]
  hypotensive activity: show hypotensive activity
[6]
  Cholesterol amount in aortas: 509.3 ± 240.1 mg/kg of protein
  Cholesterol amount in the aorta, effect in words: not decreased at all
[7]
  Free cholesterol concentration, effect in words: no decrease
[7]; [14]
  Free cholesterol concentration in plasma: 318 ± 57 mg/dL
[7]; [15]
  Free cholesterol concentration in plasma: 660 ± 42 mg/dL
[7]; [16]
  Free cholesterol concentration in plasma: 673 ± 96 mg/dL
[7]; [17]
  Free cholesterol concentration in plasma: 486 mg/dL
[9]; Atherosclerosis, 51, 343-344 (1984)
  atherosclerosis inhibitory activity: no inhibitory activity
[9]; rabbits, Lab. Invest. 49, 154-158 (1983)
  atherosclerosis inhibitory activity: shows the atherosclerosis inhibitory activity

## O=C(CCCN1CCN(c2ccc(F)cc2)CC1)NC1c2ccccc2CSc2ccccc21 (stereo not shown) [maleate of Compound A]
[10]
  toxicity by prolonged administration: no significant toxicity was observed
[11]
  LD50: > 500 mg/kg
[1]
  Area of lipid deposition at the aortic inner wall, effect in words: also decreased
[3]
  Total cholesterol concentration, effect in words: significantly decreased from 8 weeks after the beginning of administration
[4]
  Phospholipid concentration, effect in words: significantly decreased from 6 weeks after the beginning of the administration
[12]
  toxicity by prolonged administration: no significant toxicity was observed
[8]
  hypotensive activity: show hypotensive activity
[6]
  Cholesterol amount in the aorta, effect in words: significantly decreased
[7]
  Free cholesterol concentration, effect in words: significantly decreased from 6 weeks after the beginning of the administration

## COc1cc2nc(N3CCN(C(=O)c4ccco4)CC3)nc(N)c2cc1OC [prazosin]
[1]
  Area of lipid deposition at aortic inner wall: 56.7%
  Area of lipid deposition at the aortic inner wall, effect in words: not decreased at all
[3]
  Total cholesterol concentration, effect in words: no decrease
[3]; [14]
  Total cholesterol concentration in plasma: 1201 ± 45 mg/dL
[3]; [15]
  Total cholesterol concentration in plasma: 3048 ± 236 mg/dL
[3]; [16]
  Total cholesterol concentration in plasma: 2082 ± 194 mg/dL
[3]; [17]
  Total cholesterol concentration in plasma: 1999 mg/dL
[4]
  Phospholipid concentration, effect in words: no decrease
[4]; [14]
  Phospholipid concentration in plasma: 474 ± 22 mg/dL
[4]; [15]
  Phospholipid concentration in plasma: 1240 ± 94 mg/dL
[4]; [16]
  Phospholipid concentration in plasma: 937 ± 112 mg/dL
[4]; [17]
  Phospholipid concentration in plasma: 803 mg/dL
[13]; Prog. Medicine 3, 1517-1525 (1983)
  blood lipid decreasing activity: no blood lipid decreasing activity
[13]; human being, Am. J. Medicine, 76 (suppl. 2A), 79-84 (1984)
  blood lipid decreasing activity: shows blood lipid decreasing activity
[5]
  α1-receptor blocking activity: having α1 -receptor blocking activity
[8]
  hypotensive activity: show hypotensive activity
[6]
  Cholesterol amount in aortas: 372.8 ± 63.9 mg/kg of protein
  Cholesterol amount in the aorta, effect in words: not decreased at all
[7]
  Free cholesterol concentration, effect in words: no decrease
[7]; [14]
  Free cholesterol concentration in plasma: 368 ± 22 mg/dL
[7]; [15]
  Free cholesterol concentration in plasma: 916 ± 69 mg/dL
[7]; [16]
  Free cholesterol concentration in plasma: 740 ± 96 mg/dL
[7]; [17]
  Free cholesterol concentration in plasma: 584 mg/dL
